According to patent US5578622A, “Isothiazole derivatives and their uses” (Asamura Patent Office, priority 1994, dated 1996):

Experiments:
[1] = tested on: Aspergillus fumigatus TIMM 0063; assay: In vitro antimycotic activity on Aspergillus fumigatus; assay type: cell-based; details: TIMM0063, 10 (ppm), Casitone agar, 37° C., 48 hours, read-out: Antimycotic activity (growth inhibitory rate), A.fumigatus
Procedure: 3-2 In vitro antimycotic activity on Aspergillus fumigatus.
To Aspergillus fumigatus TIMM 0063 precultured at 37° C. for 48 hours on a potato dextrose agar (PDA) slant medium was added a sterilized physiological salt solution containing 0.1%(W/V) Tween 80. After conidia were made free from the solution, the solution was filtered through a sterilized two-sheet gauze to remove the mycelium mass. The number of the conidia in the resulting suspension was counted with a globulimeter and adjusted so as to be 1×10^5 conidia/ml with a sterilized physiological salt solution containing 0.1%(W/V) Tween 80. This solution was used as an inoculum solution. Casitone agar plate medium containing the DMSO solution of the test compound in a rate of 1% (V/V) was inoculated with the inoculum solution at four places thereof with a microplanter, and cultured with the medium allowed to stand at 37° C. for 48 hours. After culture, the diameter of the mycelium disks cultivated at the four inoculated parts was measured, and its mean value was obtained. The growth inhibitory rate was calculated according to the following equation, and the antimycotic activity was shown in the same manner as in Test Example 3-1.
Growth inhibitory rate (%)=(1-W'/Y')×100
Y': Diameter of mycelium disk of DMSO control group
W': Diameter of mycelium disk of test compound group

[2] = tested on: Candida albicans IFO 1270; assay: In vitro antimycotic activity on Candida albicans; assay type: cell-based; details: IFO1270, 10 (ppm), SGB, 37° C., 48 hours, turbidity at 650 nm, read-out: Antimycotic activity (growth inhibitory rate), C.albicans
Procedure: 3-1 In vitro antimycotic activity on Candida albicans
Candida albicans IFO 1270 pre-cultured on a Sabouraud's glucose agar (SGA) plate medium at 37° C. […] was suspended in a sterilized physiological salt solution. The number of fungi in the resulting suspension was counted with a globulimeter, and adjusted so as to be 1×10^7 cell/ml with a sterilized physiological salt solution. This solution was used as an inoculum solution. Thereafter, 0.1 ml of this solution and 0.1 ml of a dimethyl sulfoxide (DMSO) solution of the test compound were added to 9.8 ml of Sabouraud's glucose broth (SGB), and shake-cultured at 37° C. for 48 hours. After culture, the medium turbidity was measured at 650 nm, and the growth-inhibitory rate of the fungus was calculated according to the following equation.
Growth inhibitory rate (%)=(1-W/Y)×100
Y: Medium turbidity of DMSO control group
W: Medium turbidity of test compound group
From this inhibitory rate, the antimycotic activity was shown by the symbols A to D. The test results of the test compounds are shown in Table 4.

[3] = tested on: Trichophyton mentagrophytes IFO 5810; assay: In vitro antimicrobial activity on Trichophyton mentagrophytes; assay type: cell-based; parameters: key: A: Fungus is not observed at all with the naked eye.; B: Presence of fungus is slightly observed on shaking the test tube.; C: Fungus of about less than one-fourth that of the DMSO control group is observed with the naked eye.; Fungus of about less than half that of the DMSO control group is observed with the naked eye; details: 10 (ppm); SGB, 27° C., 7 days
Procedure: 3-3 In vitro antimicrobial activity on Trichophyton mentagrophytes To Trichophyton mentagrophytes IFO 5810 precultured at 27° C. for 2 to 3 weeks on a Sabouraud's glucose agar (SGA) slant medium was added a sterilized physiological salt solution containing 0.1% (W/V) Tween 80. After conidia were made free from the solution, the solution was filtered through a sterilized two-sheet gauze to remove the mycelium mass. The number of the conidia in the resulting suspension was counted with a globulimeter and adjusted so as to be 1×10^6 conidia/ml with a sterilized physiological salt solution containing 0.1%(W/V) Tween 80. This solution was used as an inoculum solution. Thereafter, 0.1 ml of this solution and 0.1 ml of the dimethyl sulfoxide (DMSO) solution of the test compound were added to 9.8 ml of Sabouraud's glucose broth (SGB), and shake-cultured at 27° C. for 7 days.

[4] = tested on: Gibberella fujikuroi ("Bakanae" disease of rice); assay: Test for rice seed-disinfecting effect; assay type: in vivo; details: Fusarium fujikuroi, 504 h, seed immersion 25° C. 24 hours, three weeks after treatment, read-out: Controlling effect (control of disease), "Bakanae" disease of rice
Procedure: 2-1 Test for rice seed-disinfecting effect
Unhulled rice infected with Gibberella fujikuroi ("Bakanae" disease of rice) was immersed in a test compound adjusted to 1000 ppm at 25° C. for 24 hours. Water was lightly swished off the seed, which was then sowed and germinated for two days. Three weeks after treatment with the solution containing the compound, the rate of the infected seedlings was examined, and the control of disease was calculated by comparison with that of the untreated plot. The control of disease was shown as a controlling effect on the basis of the following standard.

Rhizoctonia solani = assay: Test for controlling effect on sheath blight of rice; assay type: in vivo; details: 120 h, 200 ppm spray, 24 hours after inoculation, rice 4-leaf stage, five days after inoculation, read-out: Controlling effect (control of disease), Sheath blight of rice
Procedure: 2-3 Test for controlling effect on sheath blight of rice (Rhizoctonia solani) Rice seedlings at the 4-leaf stage were inoculated with the mycelium of sheath blight of rice (Rhizoctonia solani). After 24 hours, a test medicine solution adjusted to 200 ppm was sprayed onto the seedlings. After air-drying, the seedlings were placed in a humid room for 24 hours where the temperature was kept at 28° C. and humidity was kept at 98%. Thereafter, the seedlings were transferred to a greenhouse, and five days after inoculation, the degree of infected area was examined. The control of disease was calculated by comparison with that in the untreated plot. The control of disease is shown as a controlling effect in the same manner as in Test Example 2-1.

[5] = tested on: Pseudoperonospora cubensis; assay: Test for controlling effect on downy mildew of cucumber; assay type: in vivo; details: 168 h, 200 ppm spray, one day before inoculation, cucumber 2-leaf stage, read-out: Controlling effect (control of disease), Downy mildew of cucumber
Procedure: 2-2 Test for controlling effect on downy mildew of cucumber (Pseudoperonospora cubensis) A test compound adjusted to 200 ppm was sprayed onto cucumber at the 2-leaf stage cultivated in pots. After one day, the cucumber was inoculated by spraying the zoospore suspension of Pseudoperonospora cubensis. After inoculation, the cucumber was placed in a 25° C.-humid room for 1 day and then in a greenhouse for 6 days. Thus, the cucumber was made to be infected with downy mildew. The control of disease of the test compound is calculated by comparing the degree of infection of each leaf with that in the untreated plot. The control of disease is shown as a controlling effect in the same manner as in Test Example 2-1.

Tyromyces palustris = assay: Test for wood rotting-preventing effect (mycelium growth inhibition on malt extract agar); assay type: cell-based; details: 28° C.±2° C., 2 to 10 days, read-out: Rotting preventing effect (mycelium growth-inhibitory rate), TYP
Procedure: (§1) The following fungi were cultured in agar media, respectively, and mycelial disks on the media were stamped out together with the agar using a cork borer of 4 mm in diameter. The resulting mycelial disks on agar were used as an inoculum. Each test compound of 50 ppm was added to a malt extract agar medium and added in parts to Petri dishes. The above prepared inoculum was put on the Petri dishes and cultured at 28° C.±2° C. Two to ten days after inoculation, the diameter of the mycelial disk of each fungus was measured, and the mycelium growth-inhibitory rate was obtained according to the following equation. [formula] The mycelium growth-inhibitory rate (%) is indicated by the following symbols as a fungicidal effect on each fungus, and the results are shown in Table 2. | TYP: Tyromyces palustris

Rhizopus nigricans = assay: as above; assay type: cell-based; details: Rhizopus stolonifer, 28° C.±2° C., 2 to 10 days, read-out: Rotting preventing effect (mycelium growth-inhibitory rate), RHN
Procedure: as §1, with “RHN: Rhizopus nigricans” for “TYP: Tyromyces palustris”

Trichoderma viride = assay: as above; assay type: cell-based; details: 28° C.±2° C., 2 to 10 days, read-out: Rotting preventing effect (mycelium growth-inhibitory rate), TRV
Procedure: as §1, with “TRV: Trichoderma viride” for “TYP: Tyromyces palustris”

Aspergillus niger = assay: as above; assay type: cell-based; details: 28° C.±2° C., 2 to 10 days, read-out: Rotting preventing effect (mycelium growth-inhibitory rate), ASN
Procedure: as §1, with “ASN: Aspergillus niger” for “TYP: Tyromyces palustris”

CSc1snc(SCOCC#CI)c1C#N [Compound 128, 3-(3-iodo-2-propynyloxymethylthio)-4-cyano-5-methylthioisothiazole]
inhibition of growth at 10 µg/mL [1]: 100%
inhibition of growth at 10 µg/mL [2]: 100%
Antimycotic activity (degree of growth, naked eye), T.mentagrophytes [3]: A
pest or weed control at 1000 ppm [4]: 80 to 94%
pest or weed control at 200 ppm (Rhizoctonia solani): 60 to 79%
pest or weed control at 200 ppm [5]: 95 to 100%

CN1CCN(c2snc(OCC#CI)c2C#N)CC1 [Compound 36]
inhibition of growth at 10 µg/mL [1]: 100%
inhibition at 50 ppm (Tyromyces palustris): 95 to 100%
inhibition at 50 ppm (Rhizopus nigricans): 80 to 94%
inhibition of growth at 10 µg/mL [2]: 100%
Antimycotic activity (degree of growth, naked eye), T.mentagrophytes [3]: A
inhibition at 50 ppm (Trichoderma viride): 95 to 100%
inhibition at 50 ppm (Aspergillus niger): 80 to 94%

C=CCOc1nsc(SCOCC#CI)c1C#N [Compound 57]
inhibition of growth at 10 µg/mL [1]: 100%
inhibition at 50 ppm (Tyromyces palustris): 95 to 100%
inhibition at 50 ppm (Rhizopus nigricans): 95 to 100%
inhibition of growth at 10 µg/mL [2]: 100%
Antimycotic activity (degree of growth, naked eye), T.mentagrophytes [3]: A
inhibition at 50 ppm (Trichoderma viride): 95 to 100%
inhibition at 50 ppm (Aspergillus niger): 95 to 100%

CCOCCSc1snc(OCC#CI)c1C#N [Compound 16]
inhibition of growth at 10 µg/mL [1]: 100%
inhibition at 50 ppm (Tyromyces palustris): 95 to 100%
inhibition at 50 ppm (Rhizopus nigricans): 80 to 94%
inhibition of growth at 10 µg/mL [2]: 100%
Antimycotic activity (degree of growth, naked eye), T.mentagrophytes [3]: A
inhibition at 50 ppm (Trichoderma viride): 95 to 100%
inhibition at 50 ppm (Aspergillus niger): 80 to 94%

COc1nsc(SC(C)OCC#CI)c1C#N (stereo not drawn) [Compound 125]
inhibition of growth at 10 µg/mL [1]: 100%
inhibition of growth at 10 µg/mL [2]: 100%
Antimycotic activity (degree of growth, naked eye), T.mentagrophytes [3]: A
pest or weed control at 1000 ppm [4]: 95 to 100%
pest or weed control at 200 ppm (Rhizoctonia solani): 95 to 100%
pest or weed control at 200 ppm [5]: 95 to 100%

CC(C#CI)OCOc1nsc(SC(F)F)c1C#N (stereo not drawn) [Compound 111]
inhibition of growth at 10 µg/mL [1]: 100%
inhibition at 50 ppm (Tyromyces palustris): 95 to 100%
inhibition at 50 ppm (Rhizopus nigricans): 95 to 100%
inhibition of growth at 10 µg/mL [2]: 100%
Antimycotic activity (degree of growth, naked eye), T.mentagrophytes [3]: A
inhibition at 50 ppm (Trichoderma viride): 95 to 100%
inhibition at 50 ppm (Aspergillus niger): 95 to 100%

N#Cc1c(SC(F)F)nsc1SCOCC#CI [Compound 138]
inhibition of growth at 10 µg/mL [1]: 100%
inhibition at 50 ppm (Tyromyces palustris): 95 to 100%
inhibition at 50 ppm (Rhizopus nigricans): 95 to 100%
inhibition of growth at 10 µg/mL [2]: 100%
Antimycotic activity (degree of growth, naked eye), T.mentagrophytes [3]: A
inhibition at 50 ppm (Trichoderma viride): 95 to 100%
inhibition at 50 ppm (Aspergillus niger): 95 to 100%

CC(C)Sc1snc(OCC#CI)c1C#N [Compound 4]
inhibition of growth at 10 µg/mL [1]: 100%
inhibition of growth at 10 µg/mL [2]: 100%
Antimycotic activity (degree of growth, naked eye), T.mentagrophytes [3]: A
pest or weed control at 1000 ppm [4]: 95 to 100%
pest or weed control at 200 ppm (Rhizoctonia solani): 80 to 94%
pest or weed control at 200 ppm [5]: 95 to 100%

CCSc1snc(OCCC#CI)c1C#N [Compound 71]
inhibition of growth at 10 µg/mL [1]: 100%
inhibition of growth at 10 µg/mL [2]: 100%
Antimycotic activity (degree of growth, naked eye), T.mentagrophytes [3]: A

N#Cc1c(OC(F)F)nsc1OCC#CI [Compound 50]
inhibition of growth at 10 µg/mL [1]: 100%
inhibition of growth at 10 µg/mL [2]: 100%
Antimycotic activity (degree of growth, naked eye), T.mentagrophytes [3]: A
pest or weed control at 1000 ppm [4]: 95 to 100%
pest or weed control at 200 ppm (Rhizoctonia solani): 95 to 100%
pest or weed control at 200 ppm [5]: 95 to 100%

N#CCOc1nsc(SCOCC#CI)c1C#N [Compound 63]
inhibition of growth at 10 µg/mL [1]: 100%
inhibition of growth at 10 µg/mL [2]: 100%
Antimycotic activity (degree of growth, naked eye), T.mentagrophytes [3]: A
pest or weed control at 1000 ppm [4]: 95 to 100%
pest or weed control at 200 ppm (Rhizoctonia solani): 80 to 94%
pest or weed control at 200 ppm [5]: 95 to 100%

CCOc1snc(OCC#CI)c1C#N [Compound 22]
inhibition of growth at 10 µg/mL [1]: 100%
inhibition at 50 ppm (Tyromyces palustris): 95 to 100%
inhibition at 50 ppm (Rhizopus nigricans): 95 to 100%
inhibition of growth at 10 µg/mL [2]: 100%
Antimycotic activity (degree of growth, naked eye), T.mentagrophytes [3]: A
inhibition at 50 ppm (Trichoderma viride): 95 to 100%
inhibition at 50 ppm (Aspergillus niger): 95 to 100%
